Common to all, as to assay type: binding, human
Assay [1] concerns antibodies in antisera from HIV-1 infected persons. As to the kind of experiment: ELISA with HIV-1 antibody-positive sera (biotinylated peptides on streptavidin- or avidin-coated plates, unbiotinylated peptides coated directly). The protocol:
(§1) Where peptides were to be coated directly, stock solutions of the peptides were diluted in sodium carbonate buffer, pH 9.6 and used to coat polystyrene microtiter plates at a peptide concentration of 2 to 5 micrograms per milliliter for 1 hour at 37° C.
(§2) In cases where biotinylated peptides were to be evaluated, plates were first coated with streptavidin in sodium carbonate buffer, pH 9.6 at a concentration of 3 micrograms per milliliter for 1 hour at 37° C. The plates were then washed to remove excess, unbound protein. A working solution of the biotinylated peptide at 1 microgram per milliliter in sodium carbonate buffer was then added to the wells of the microtiter plate and incubated for 1 hours at 37° C.
(§3) Once the plates had been coated with antigen, any remaining free binding sites on the plastic were blocked with casein. After washing, a dilution of the appropriate antisera, usually 1:100, was added to the wells of the plates and incubated for 1 hour at 37° C.
(§4) After washing to remove unbound material, specific antibody binding was detected by incubating the plates with goat anti-human immunoglobulin antibodies conjugated to the enzyme horseradish peroxidase. Following removal of unbound conjugate by washing, a solution containing H2O2 and 3,3′,5,5′-tetramethylbenzidine was added.
(§5) Reactions were stopped after a suitable interval by addition of sulfuric acid. […] Absorbance measurements were made at a wavelength of 450 nanometers and all data are expressed as an optical density value at this wavelength.
Experiments were performed to evaluate antibody recognition of short, 10 amino acid-long, N-acetylated peptides corresponding to other contained within the transmembrane proteins of HIV-1 and HIV-2. […] The peptides used for the comparison were as follows:
Antibody binding to these peptides was compared to antibody binding to the unibiotinylated peptides which were coated directly onto microtiter plates.
In order to evaluate antibody recognition of these two peptides, the peptides were bound individually to streptavidin-coated microtiter plates and tested using a panel of antisera from HIV-1 seropositive donors.
(§6) To determine how well biotinylated peptides would function in a mixture when bound to streptavidin- or avidin-coated plates, two mixtures were made of the N-terminally biotinylated versions of the HIV-1 peptides TM-HIV-1 (hereabove referred to as 1a.1) and V3-nm (hereabove referred to as 1b.4), the HIV-2 peptide TM-HIV-2 (hereabove referred to as 2a), and the hepatitis C virus peptides II, IX, and XVIII. Mixture A contained each of the six biotinylated peptides at a concentration of 1 microgram per milliliter (6 micrograms per milliliter peptide, total) while in mixture B, each peptide was present at a concentration of 0.1 microgram per milliliter (0.6 microgram per milliliter peptide, total). The individual peptides were coated at a concentration of 1 microgram per milliliter. For purposes of comparison, mixtures A and B were also coated directly onto the wells of a microtiter plate. Samples from HIV-1, HIV-2, and HCV-seropositive donors were tested and compared to sera from seronegative blood donors. A cut-off absorbance value of 0.250 was used to determine whether a reaction was positive or negative. Absorbance values equal or greater than 0.250 were considered positive while absorbance values below this value were considered negative.
A spacer consisting of two glycine residues was added to the amino terminus.

The test system of assay [2] is antibodies in antisera from HIV-2 infected persons. As to the kind of experiment: ELISA with HIV-2 antibody-positive sera (biotinylated peptides on streptavidin- or avidin-coated plates, unbiotinylated peptides coated directly). The protocol: as §1, §2, §3, §4, §5
The biotinylated peptides were loaded onto microtiter plates which had been coated with streptavidin. Antibody binding to these peptides was compared to antibody binding to the unibiotinylated peptides which were coated directly onto microtiter plates. It is evident that the biotinylated peptides from the HIV-1 or HIV-2 transmembrane proteins bound to streptavidin are recognized very well by antisera from HIV-1 or HIV-2 infected persons respectively. This is in contrast to the unbiotinylated versions of these peptides coated directly onto the polystyrene plates.
as §6
Two glycine residues were added at the N-terminus of each peptide to serve as a spacer and a biotin was coupled to the α-amino group of the resulting N-terminal glycine. The peptides were bound to streptavidin and coated in the wells of microwell plates. HIV-2 antibody-positive sera were used to evaluate these two peptides in an ELISA.

For assay [3], the system named is HIV-1 anti-V3 loop antibodies in sera. As to the kind of experiment: Line immunoassay (LIA) with HIV-1 gp120 V3 loop peptides. As to conditions: for recognition of peptide, % of sera: Table 15. The text has this:
In order to determine the general diagnostic value of the V3 loop region of gp120, nine peptides derived from this region of nine different HIV-1 isolates were synthesized and included in a LIA. All nine peptides were provided with a Gly-Gly spacer and an N-terminal biotin. The aligned peptides (one-letter amino acid code) sequences are as follows: (SEQ ID NOs: 154-162, respectively)
The peptides were mixed with streptavidin in a slight molar excess over biotin binding sites and the peptide:streptavidin complexes were separated from unbound material over Sephadex G-25. Material eluting in the void volume was used in the preparation of the LIA.
A total of 332 sera were tested which had been obtained from various geographical regions. […] The reactions of the various lines were evaluated as positive (i) or negative (o) (data not shown).
In total, 307 of the 332 sera gave a reaction to at least one peptide on the V3-loop LIA. […] The total number of positive sera tested was therefore 326. […] There were, however, significant geographical differences.

The mark [4] stands for this setting: Table 8, serum 3990 (HIV-1), Avidin.
Setting [5] is: Table 8, serum DV (HIV-1), Avidin.
Where [6] appears, read: Table 8, serum PL (HIV-1), Avidin.
[7] abbreviates: Table 8, serum YS (HIV-1), Avidin.
Where [8] appears, read: Table 8, serum 1400 (HIV-2), Avidin.
Where [9] appears, read: Table 8, serum AG (HIV-2), Avidin.
Setting [10] is: Table 14, HIV-V3 positive sera, 307.
Setting [11] is: Table 14, gp120 positive sera, COUNT 326.

Ends that are not written are not given here. * marks the point of attachment. Biotin = O=C1N[C@H]2[C@H](CS[C@H]2CCCCC(=O)*)N1

Consider “Bio-Gly-Gly-Gly-Ile-Trp-Gly-Cys-Ser-Gly-Lys-Leu-Ile-Cys-NH2 (Biotin-GGGIWGCSGKLIC-NH2; cysteine pairing not given here) [TM-HIV-1 Bio]”, for which the “optical density (450 nm)” value in assay [1] (Table 1, serum 0724, HIV-1 positive) is recorded as 2.570; in assay [1] (Table 1, serum PL, HIV-1 positive), 1.559; in assay [1] (Table 1, serum VE, HIV-1 positive), 2.551; in assay [1] (Table 1, serum YEMO, HIV-1 positive), 2.357; in assay [1] (Table 1, serum mm, HIV-1 positive) it was 2.579; in assay [1] (Table 6, serum 0369/87, HIV positive), 2.042. For the same substance, the “optical density (450 nm)” value in assay [1] (Table 6, serum 0724, HIV positive) worked out at 2.291; in assay [1] (Table 6, serum 1164, HIV positive), 1.919; in assay [1] (Table 6, serum 1252, HIV positive), 2.356; in assay [1] (Table 6, serum 2049, HIV positive), 2.058; in assay [1] (Table 6, serum 3990, HIV positive) it was 1.870; in assay [1] (Table 6, serum 4436, HIV positive), 2.110. Also, the “optical density (450 nm)” value in assay [1] (Table 6, serum 4438, HIV positive) amounted to 1.697; in assay [1] (Table 6, serum DV, HIV positive), 1.579; in assay [1] (Table 6, serum MM, HIV positive), 2.308; in assay [1] (Table 6, serum OOST 6, HIV positive), 2.003; in assay [1] (Table 6, serum OOST 7, HIV positive) it was 2.027; in assay [1] (Table 6, serum OOST 8, HIV positive) it was 2.237. Also, the “optical density (450 nm)” value in assay [1] (Table 6, serum OOST 9, HIV positive) came to 2.222; in assay [1] (Table 6, serum PL, HIV positive), 1.849; in assay [1] (Table 6, serum VCM, HIV positive), 2.263; in assay [1] (Table 6, serum VE, HIV positive), 2.240; in assay [1] (setting [4]) it was 1.602; in assay [1] (setting [5]), 1.329. The “optical density (450 nm)” value in assay [1] (setting [6]) was determined as 1.974; in assay [1] (setting [7]) it was 0.046; in assay [2] (Table 1, serum 53-3, HIV-2 positive), 0.000; in assay [2] (Table 1, serum 1400, HIV-2 positive) it was 0.000; in assay [2] (Table 1, serum AG, HIV-2 positive), 0.000; in assay [2] (setting [8]), 0.051. In addition, in assay [2] (setting [9]), the “optical density (450 nm)” value is listed as 0.054.

With “Bio-Gly-Gly-Tyr-Asn-Lys-Arg-Lys-Arg-Ile-His-Ile-Gly-Pro-Gly-Arg-Ala-Phe-Tyr-Thr-Thr-Lys-Asn-Ile-Ile-Gly-NH2 (Biotin-GGYNKRKRIHIGPGRAFYTTKNIIG-NH2) [V3-mn Bio]”, the “optical density (450 nm)” value in assay [1] (Table 2, sample 266) was found to be 2.591; in assay [1] (Table 2, sample 4436), 2.268; in assay [1] (Table 2, sample 4438), 2.554; in assay [1] (Table 2, sample DV), 2.881; in assay [1] (Table 2, sample MM) it was 2.542; in assay [1] (Table 2, sample OOST 6), 2.355. Also, the “optical density (450 nm)” value in assay [1] (Table 2, sample PL) is 2.351; in assay [1] (Table 2, sample YS), 2.784; in assay [1] (Table 3, serum 3990, peptide bound to avidin), 1.854; in assay [1] (Table 3, serum 3990, peptide bound to streptavidin), 1.391; in assay [1] (Table 3, serum 4436, peptide bound to avidin), 1.519; in assay [1] (Table 3, serum 4436, peptide bound to streptavidin), 0.596. Further, the “optical density (450 nm)” value in assay [1] (Table 3, serum DV, peptide bound to avidin) is given as 1.748; in assay [1] (Table 3, serum DV, peptide bound to streptavidin) it was 1.041; in assay [1] (Table 3, serum PL, peptide bound to avidin) it was 0.983; in assay [1] (Table 3, serum PL, peptide bound to streptavidin) it was 0.222; in assay [1] (Table 3, serum VE, peptide bound to avidin) it was 1.908; in assay [1] (Table 3, serum VE, peptide bound to streptavidin) it was 1.526. Moreover, the “optical density (450 nm)” value in assay [1] (Table 3, serum YS, peptide bound to avidin) is reported as 1.721; in assay [1] (Table 3, serum YS, peptide bound to streptavidin), 1.236; in assay [1] (setting [4]), 2.319; in assay [1] (setting [5]), 2.340; in assay [1] (setting [6]), 1.321; in assay [1] (setting [7]), 2.201. The “optical density (450 nm)” value in assay [2] (setting [8]) is 0.055; in assay [2] (setting [9]), 0.068. The “optical density (450 nm), off scale” value in assay [1] (Table 2, sample 3990) was “overflow* (Absorbance value greater than 3.000)”; in assay [1] (Table 2, sample OOST 4) it was “overflow* (Absorbance value greater than 3.000)”; in assay [1] (Table 2, sample OOST 8), “overflow* (Absorbance value greater than 3.000)”; in assay [1] (Table 2, sample VE), “overflow* (Absorbance value greater than 3.000)”. Besides, the “% Reactive” value in assay [3] (setting [10]) came out at 90%; in assay [3] (setting [11]), 84%. Besides, the “Total SUM (reactive sera), printed on the line COUNT” value in assay [3] (setting [10]) was 275. Further, in assay [3] (setting [11]), the “Total SUM (reactive sera)” value was found to be 275. For the same substance, the “recognition of peptide, % of sera” value in assay [3] (AFRICAN sera) was found to be 85%; in assay [3] (BRAZILIAN sera) it was 78%; in assay [3] (EUROPEAN sera), 97%.

As to ETWKKPDYEPPVVHGCPLPP, the “optical density (450 nm)” value in assay [1] (setting [4]) came out at 0.056; in assay [1] (setting [5]) it was 0.047; in assay [1] (setting [6]), 0.052; in assay [1] (setting [7]), 0.049; in assay [2] (setting [8]) it was 1.362; in assay [2] (setting [9]), 0.058.

As for IIPDREVLYREFDEMEECSQ, the “optical density (450 nm)” value in assay [1] (setting [4]) was determined as 0.066; in assay [1] (setting [5]), 0.049; in assay [1] (setting [6]) it was 0.056; in assay [1] (setting [7]), 0.049; in assay [2] (setting [8]), 0.052; in assay [2] (setting [9]), 0.064.

For PQRKTKRNTNRRPQDVKFPG, the “optical density (450 nm)” value in assay [1] (setting [4]) is 0.054; in assay [1] (setting [5]) it was 0.047; in assay [1] (setting [6]), 0.052; in assay [1] (setting [7]), 0.048; in assay [2] (setting [8]), 0.121; in assay [2] (setting [9]), 0.081.

Values taken from US6667387B1, “HCV core peptides” (priority 1992, dated 2003).
